Measured values: US20160177259A1, “[…]” (Evonik Degussa GmbH, priority 2014, published 2016)

Tested on: Clostridium ljungdahlii
Test: Example 1 redone at shaking speed 100 min-1 (Example 1b)
Type: cell-based
Method: For the production, anaerobic carbonate buffer (adjusted with KOH 1.4 g/L) was used. The only addition to the buffer was L-cysteine HCl at different concentrations.
For identical autotrophic productions, 500 mL septum bottles were filled with 100 mL carbonate buffer and shaken at 150 min^−1 in an open shaking water bath shaker Innova 3100 by New Brunswick Scientific. The reactions were carried out at 37° C. with manual control of the pH. Once the pH dropped below 5.5, KOH was replenished from a stock solution of 140 g/L. In the present experiments the pH in both reactors were checked at the following points in time 50.3 h, 73.3 h and corrected by the addition of each 1.4 g/L KOH manually.
The reactors were inoculated with a synthesis gas mixture of 67% H2 and 33% CO2 and pressure of 0.8 bar applied. To replenish the depleted gas, the gas above the reactors was replaced once a day and again the pressure brought to 0.8 bars.
The reactor was started by seeding autotrophic grown cells at an OD of 0.2. The preculture was carried out continuously in a 1 L bottle with 500 mL complex medium. The complex medium consisting of 1 g/lNH4Cl, 0.1 g/l KCl, 0.2 g/l MgSO4 ×7 H2O, 0.8 g/l NaCl, 0.1 g/l KH2PO4, 20 mg/l CaCl2 ×2 H2O, 20 g/l MES, 1 g/l yeast extract, 0.4 g/L L-Cysteine-HC1, 20 mg/l nitrilotriacetic acid, 10 mg/l MnSO4×H2O, 8 mg/l (NH4)2Fe(SO4)2×6 H2O, 2 mg/l CoCl2×6 H2O, 2 mg/l ZnSO4 33 7 H2O, 0.2 mg/l CuCl 2 33 2 H2O, 0.2 mg/l Na2MoO4×2 H2O, 0.2 mg/l NiCl2×6 H2O, 0.2 mg/l Na2SeO4, 0.2 mg/l Na2WO4×2 H2O, 20 μg/l d-Biotin, 20 μg/l folic acid, 100 μg/l pyridoxine HCl, 50μg/l thiamine-HCl×H2O, 50 μg l of riboflavin, 50 μg/l nicotinic acid, 50 μg/l Ca-pantothenate, 1 μg/l vitamin B12, 50μg/l p-aminobenzoate, 50 μg/l lipoic acid. The culture was then gassed continuously with synthesis gas (67% H2, 33% CO2) at a flow rate of 3 l/h over a filter with pore size 10 microns. The cells were in late log phase growth at an OD of 0.37 and where anaerobically centrifuged (4500 rpm, 4300 g, 20° C., 10 min). The supernatant was discarded and the cell pellet resuspended in 10 ml carbonate buffer. The prepared cells were then used to inoculate the actual tests.
When sampling each 5 ml sample was removed for determination of OD600, pH and the product spectrum. The determination of the product concentration was performed using quantitative 1H-NMR spectroscopy. As an internal quantification standard sodium trimethylsilylpropionate was used (T(M)SP).
The example 1 above was redone with only a difference in the shaking speed on the septum bottles for autotrophic productions. The shaking speed used was 100 min^−1.
A reporting error in example 1 was noticed where the results of cysteine for reactor 1 and 2 were switched.

[1] = reactor 1, 0.1 g/L L-Cysteine-HCl, 100 min-1, 0.0 h
[2] = reactor 1, 0.1 g/L L-Cysteine-HCl, 100 min-1, 24.5 h
[3] = reactor 1, 0.1 g/L L-Cysteine-HCl, 100 min-1, 50.3 h
[4] = reactor 1, 0.1 g/L L-Cysteine-HCl, 100 min-1, 73.3 h
[5] = reactor 1, 0.1 g/L L-Cysteine-HCl, 100 min-1, 92.3 h
[6] = reactor 2, 0.4 g/L L-Cysteine-HCl, 100 min-1, 0.0 h
[7] = reactor 2, 0.4 g/L L-Cysteine-HCl, 100 min-1, 24.5 h
[8] = reactor 2, 0.4 g/L L-Cysteine-HCl, 100 min-1, 50.3 h
[9] = reactor 2, 0.4 g/L L-Cysteine-HCl, 100 min-1, 73.3 h
[10] = reactor 2, 0.4 g/L L-Cysteine-HCl, 100 min-1, 92.3 h

**Q.** What does the source list for `Cl.N[C@@H](CS)C(=O)O` [L-Cysteine-HCl, L-cysteine hydrochloride]?
**A.** Acetate (NMR) [1]: 13 mg/L; Ethanol (NMR) [1]: 6 mg/L; OD600 [1]: 0.25; Acetate (NMR) [2]: 1418 mg/L; Ethanol (NMR) [2]: 19 mg/L; OD600 [2]: 0.25; Δp [2]: 0.6 bar; Acetate (NMR) [3]: 2556 mg/L; Ethanol (NMR) [3]: 130 mg/L; OD600 [3]: 0.30; Δp [3]: 0.6 bar; OD600 [4]: 0.30; Δp [4]: 0.6 bar; Acetate (NMR) [5]: 6960 mg/L; Ethanol (NMR) [5]: 321 mg/L; OD600 [5]: 0.26; Δp [5]: 0.4 bar; Acetate (NMR) [6]: 15 mg/L; Ethanol (NMR) [6]: 8 mg/L; OD600 [6]: 0.24; Acetate (NMR) [7]: 2331 mg/L; Ethanol (NMR) [7]: 27 mg/L; OD600 [7]: 0.23; Δp [7]: 0.6 bar; Acetate (NMR) [8]: 3197 mg/L; Ethanol (NMR) [8]: 128 mg/L; OD600 [8]: 0.26; Δp [8]: 0.5 bar; OD600 [9]: 0.22; Δp [9]: 0.3 bar; Acetate (NMR) [10]: 5067 mg/L; Ethanol (NMR) [10]: 150 mg/L; OD600 [10]: 0.22; Δp [10]: 0.3 bar
